Assay results: PubChem BioAssay (NCI)
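Growth conditions: 96-well plates. Treatment: test compound, 48 hours, 5 concentrations. Analysis: linear interpolation between bracketing concentrations; unreached endpoints set to highest concentration. TGI denotes the concentration required for complete inhibition of growth.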

Experiments:
Experiment in all cases: DTP human tumour cell line panel, 48 h
PC-3 prostate = system: PC-3 prostate
HT29 colon = system: HT29 colon
HCT-116 colon = system: HCT-116 colon
TK-10 renal = system: TK-10 renal
OVCAR-4 ovarian = system: OVCAR-4 ovarian
SF-539 CNS = system: SF-539 CNS
MDA-MB-435 = system: MDA-MB-435
SNB-75 CNS = system: SNB-75 CNS
SK-MEL-2 melanoma = system: SK-MEL-2 melanoma
SK-OV-3 ovarian = system: SK-OV-3 ovarian
M14 melanoma = system: M14 melanoma
NCI-H226 lung = system: NCI-H226 lung
OVCAR-8 ovarian = system: OVCAR-8 ovarian
HOP-92 NSCLC = system: HOP-92 NSCLC
NCI/ADR-RES ovarian = system: NCI/ADR-RES ovarian
A498 renal = system: A498 renal
SNB-19 CNS = system: SNB-19 CNS
ACHN renal = system: ACHN renal
BT-549 breast = system: BT-549 breast
UACC-62 melanoma = system: UACC-62 melanoma

Compound	TGI (PC-3 prostate) [µM]	TGI (HT29 colon) [µM]	TGI (HCT-116 colon) [µM]	TGI (TK-10 renal) [µM]	TGI (OVCAR-4 ovarian) [µM]	TGI (SF-539 CNS) [µM]	TGI (MDA-MB-435) [µM]	TGI (SNB-75 CNS) [µM]	TGI (SK-MEL-2 melanoma) [µM]	TGI (SK-OV-3 ovarian) [µM]	TGI (M14 melanoma) [µM]	TGI (NCI-H226 lung) [µM]	TGI (OVCAR-8 ovarian) [µM]	TGI (HOP-92 NSCLC) [µM]	TGI (NCI/ADR-RES ovarian) [µM]	TGI (A498 renal) [µM]	TGI (SNB-19 CNS) [µM]	TGI (ACHN renal) [µM]	TGI (BT-549 breast) [µM]	TGI (UACC-62 melanoma) [µM]
Cc1cccc2c1CC1(C2)Cc2c(C)cccc2C1=O (stereo not drawn)	> 100	97.2	35.7	92.1	> 100	57.1	55.8	70.7	38.3	> 100	77.7	61	> 100	41.9	> 100	88.9	> 100	84.3	–	–
N#Cc1c(-c2ccccc2)/c(=C\Nc2ccc(F)cc2)c(=O)n2c1nc1ccccc12	> 100	–	> 100	> 100	> 100	68.4	> 100	> 100	> 100	> 100	40.4	64.1	> 100	–	64.9	> 100	> 100	> 100	> 100	–
COc1cccc(CCCNC(=O)Cc2cc(OC)c(OC)cc2CO)c1	> 100	> 100	> 100	> 100	> 100	–	> 100	> 100	> 100	–	> 100	> 100	> 100	> 100	> 100	> 100	> 100	> 100	> 100	> 100
CSC(=S)N(C)C	–	> 100	> 100	> 100	–	> 100	> 100	> 100	> 100	> 100	> 100	> 100	> 100	> 100	> 100	> 100	> 100	–	> 100	> 100
COc1ccc(C2=N/C(=C\c3ccccc3)C(=O)O2)cc1	> 100	> 100	–	> 100	> 100	> 100	> 100	> 100	> 100	> 100	> 100	98.1	> 100	> 100	43.4	–	> 100	> 100	–	–
CN(C)c1ccc(S(=O)Nc2ccccc2)cc1 (stereo not drawn)	–	> 100	> 100	> 100	> 100	> 100	57.5	–	89.1	–	> 100	> 100	> 100	–	> 100	–	> 100	> 100	28.9	81.6
Cc1ccc(C(=C2Sc3ccccc3S2)C(=C2Sc3ccccc3S2)c2ccc(C)s2)s1	> 100	> 100	> 100	> 100	> 100	–	> 100	> 100	> 100	> 100	> 100	> 100	> 100	–	> 100	> 100	> 100	> 100	> 100	> 100
Cc1nc(N)c(N2CCN([N+](=O)[O-])CC2)c(=O)[nH]1	> 100	> 100	> 100	> 100	> 100	> 100	> 100	> 100	> 100	–	> 100	> 100	> 100	–	> 100	> 100	> 100	> 100	> 100	–
CCCSCC(P(=O)(O)O)P(=O)(O)O	–	> 100	> 100	–	> 100	> 100	–	> 100	> 100	> 100	–	> 100	> 100	> 100	> 100	> 100	> 100	–	–	> 100
COc1cc(NS(C)(=O)=O)ccc1Nc1cc(C)[nH]c2ccc3nccc3c12	> 100	> 100	> 100	> 100	> 100	–	> 100	–	> 100	–	> 100	> 100	> 100	> 100	> 100	> 100	> 100	> 100	> 100	> 100
COc1cc(/C=C/C(=O)CC(=O)/C=C/c2ccc(OC(=O)CCCCC3CCSS3)c(OC)c2)ccc1OC(=O)CCCCC1CCSS1 (stereo not drawn)	> 100	> 100	> 100	> 100	> 100	> 100	> 100	> 100	> 100	> 100	> 100	> 100	> 100	–	> 100	–	> 100	> 100	> 100	> 100
O=C1c2ccccc2-c2c1c(-c1ccc(F)cc1)nc1ccc3ccccc3c21	> 100	> 100	> 100	–	> 100	> 100	> 100	> 100	> 100	> 100	> 100	> 100	> 100	–	> 100	> 100	> 100	> 100	> 100	> 100
CCC1(CC)C(=O)NN(C(=O)c2ccccc2)C1=O	> 100	> 100	> 100	> 100	> 100	–	> 100	> 100	> 100	> 100	> 100	> 100	> 100	–	> 100	–	> 100	> 100	> 100	> 100
O=C(Nc1nccs1)c1c(O)nc2sccn2c1=O	> 10	> 10	> 10	> 10	> 10	> 10	> 10	> 10	> 10	> 10	> 10	> 10	> 10	–	> 10	> 10	> 10	> 10	–	> 10
